The source of these data is patent US11040981B2, “Pyrrolotriazine compounds and methods of inhibiting TAM kinases” (Syros Pharmaceuticals, Inc., priority 2017, dated 2021).

In one test the target is T1, FLT3 (Homo sapiens, UniProt P36888).
T1 sequence (P36888 27-993): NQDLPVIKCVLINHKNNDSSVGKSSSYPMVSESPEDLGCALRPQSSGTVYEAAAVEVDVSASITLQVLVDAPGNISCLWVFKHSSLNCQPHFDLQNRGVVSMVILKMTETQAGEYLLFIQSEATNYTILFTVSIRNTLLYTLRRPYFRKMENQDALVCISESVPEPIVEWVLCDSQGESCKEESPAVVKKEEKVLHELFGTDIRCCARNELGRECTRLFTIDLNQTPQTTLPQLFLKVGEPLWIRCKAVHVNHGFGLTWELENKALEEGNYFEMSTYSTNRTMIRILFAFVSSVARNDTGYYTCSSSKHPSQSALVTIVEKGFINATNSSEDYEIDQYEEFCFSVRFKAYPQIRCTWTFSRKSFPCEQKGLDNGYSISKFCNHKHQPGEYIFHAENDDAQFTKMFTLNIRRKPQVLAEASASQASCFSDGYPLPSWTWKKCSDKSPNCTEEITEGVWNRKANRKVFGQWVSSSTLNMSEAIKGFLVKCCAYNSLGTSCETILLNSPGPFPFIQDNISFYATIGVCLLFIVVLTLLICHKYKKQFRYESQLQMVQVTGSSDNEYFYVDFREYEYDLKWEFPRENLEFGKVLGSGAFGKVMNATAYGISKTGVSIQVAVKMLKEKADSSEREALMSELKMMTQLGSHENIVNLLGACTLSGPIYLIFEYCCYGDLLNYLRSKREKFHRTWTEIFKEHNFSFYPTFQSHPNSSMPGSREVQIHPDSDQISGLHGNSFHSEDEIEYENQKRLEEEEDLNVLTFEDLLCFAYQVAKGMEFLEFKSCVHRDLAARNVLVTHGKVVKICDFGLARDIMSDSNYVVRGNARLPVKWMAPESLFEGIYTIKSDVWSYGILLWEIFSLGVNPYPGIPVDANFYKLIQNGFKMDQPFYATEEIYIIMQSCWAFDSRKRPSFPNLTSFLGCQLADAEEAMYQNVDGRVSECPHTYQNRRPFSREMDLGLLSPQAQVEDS
As to the kind of experiment: TR-FRET kinase activity assay, FLT3. The format is biochemical. As to conditions: ATP at Km, 60 minutes. In short, it runs like this:
(§1)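 Enzyme, fluorescent peptide substrate and compound were mixed, and the reaction was started with ATP at each kinase's Km, in 50 mM HEPES pH 7.5, 10 mM MgCl2, 1 mM EGTA, 0.01% Brij 35, 1 mM DTT at RT. After 60 minutes EDTA quench, Eu-labelled phospho-specific antibody was added for 30 minutes, and IC50 was derived from TR-FRET signal loss.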
In general terms: TR-FRET usually uses a lanthanide donor and a delayed reading to cut background.

For a further test, the target named is T2, MERTK (Homo sapiens, UniProt Q12866).
T2 sequence (Q12866 21-999): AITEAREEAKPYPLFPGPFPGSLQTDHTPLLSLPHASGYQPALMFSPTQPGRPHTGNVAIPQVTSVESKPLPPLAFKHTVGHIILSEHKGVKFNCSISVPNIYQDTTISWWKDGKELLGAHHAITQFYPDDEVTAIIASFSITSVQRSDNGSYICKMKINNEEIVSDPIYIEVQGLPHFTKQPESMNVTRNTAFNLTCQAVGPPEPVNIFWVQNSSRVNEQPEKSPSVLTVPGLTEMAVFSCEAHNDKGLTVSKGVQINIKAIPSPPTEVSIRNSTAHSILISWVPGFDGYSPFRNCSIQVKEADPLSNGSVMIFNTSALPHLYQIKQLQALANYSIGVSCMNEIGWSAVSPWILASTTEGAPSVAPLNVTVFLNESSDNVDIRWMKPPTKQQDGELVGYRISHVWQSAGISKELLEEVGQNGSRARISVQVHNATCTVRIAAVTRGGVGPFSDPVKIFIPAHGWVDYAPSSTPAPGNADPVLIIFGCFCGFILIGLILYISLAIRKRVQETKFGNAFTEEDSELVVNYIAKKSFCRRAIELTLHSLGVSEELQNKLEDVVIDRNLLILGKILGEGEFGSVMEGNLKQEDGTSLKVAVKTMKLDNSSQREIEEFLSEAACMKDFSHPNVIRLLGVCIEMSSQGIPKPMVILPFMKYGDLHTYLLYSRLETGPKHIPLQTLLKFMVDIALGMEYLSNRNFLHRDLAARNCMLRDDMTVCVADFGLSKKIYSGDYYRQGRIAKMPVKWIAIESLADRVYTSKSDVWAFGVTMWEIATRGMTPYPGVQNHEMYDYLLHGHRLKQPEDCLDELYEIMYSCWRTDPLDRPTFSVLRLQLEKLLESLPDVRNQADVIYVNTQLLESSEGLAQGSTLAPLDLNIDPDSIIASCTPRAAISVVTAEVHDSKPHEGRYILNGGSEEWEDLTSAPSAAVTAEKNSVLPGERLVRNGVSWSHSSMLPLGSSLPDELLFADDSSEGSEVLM
Briefly: TR-FRET kinase activity assay, MERTK. Format: biochemical. The settings on record: for IC50: TR-FRET activity assay, ATP at Km, 60 minutes, read-out: Mer IC50. The procedure, abridged: as §1

[1] abbreviates: ratio calculated as FLT3 IC50/Mer IC50.
The mark [2] stands for this setting: ratio of Mer to FLT3: FLT3 IC50/Mer IC50.

`COC[C@H](C)Nc1ncc2c(-c3cnn(C(C)(C)c4nnc(C(F)F)o4)c3)cc([C@H]3CC[C@H](O)CC3)n2n1` [Compound 599]: the IC50 is 1 to 10 µM at FLT3 and ≤ 0.1 µM at MERTK. Also, the “FLT3/Mer ratio (FLT3 IC50/Mer IC50)” value on MERTK (setting [1]) is “+++ (“+++” represents a ratio of >100)”.

Take `COC[C@H](C)Nc1ncc2c(-c3cnn(CC(C)C)c3)cc([C@H]3CC[C@H](O)CC3)n2n1` [Compound 167]: the IC50 against FLT3 is 0.1 to 1 µM; on MERTK, ≤ 0.1 µM. Further, the “FLT3/Mer ratio (FLT3 IC50/Mer IC50)” value on MERTK (setting [2]) is given as “+++ (“+++” represents a ratio of >100)”.

For `COCC(C)Nc1ncc2c(-c3cccc(C(C)N4CCCC4)c3)cc(C3CCC(O)CC3)n2n1` (stereo not drawn) [Compound 158], the IC50 against FLT3 is 0.1 to 1 µM; on MERTK, ≤ 0.1 µM. Moreover, on MERTK (setting [2]), the “FLT3/Mer ratio (FLT3 IC50/Mer IC50)” value was “+++ (“+++” represents a ratio of >100)”.

Consider `[2H]C([2H])([2H])OCC(C)Nc1ncc2c(-c3ccnc(N4CCOCC4)c3)cc(C3CCC(O)CC3)n2n1` (stereo not drawn) [Compound 629], for which the IC50 against FLT3 is 0.1 to 1 µM; at MERTK, ≤ 0.1 µM. On MERTK (setting [1]), the “FLT3/Mer ratio (FLT3 IC50/Mer IC50)” value is recorded as “+++ (“+++” represents a ratio of >100)”.

`COCCC(C)Nc1ncc2c(-c3ccc(CN4CCCC4)cc3)cc(C3CCC(O)CC3)n2n1` (stereo not drawn) [Compound 161]: the IC50 against FLT3 and at MERTK was ≤ 0.1 µM each time. Besides, the “FLT3/Mer ratio (FLT3 IC50/Mer IC50)” value at MERTK (setting [2]) is “++ (“++” represents a ratio of between 10 and 100)”.

On to `COC[C@H](C)Nc1ncc2c(-c3ccc([C@H](C)N4CCCC4)cc3)cc([C@H]3CC[C@H](O)CC3)n2n1` [Compound 165], for which the IC50 against FLT3 and at MERTK was ≤ 0.1 µM in each case. Further, the “FLT3/Mer ratio (FLT3 IC50/Mer IC50)” value at MERTK (setting [2]) is “++ (“++” represents a ratio of between 10 and 100)”.

For `COC[C@H](C)Nc1ncc2c(-c3ccnc(S(C)(=O)=O)c3)cc(C3CCC(O)CC3)n2n1` (stereo partly drawn) [Compound 627], the figures for the IC50 on FLT3 and on MERTK were 1 to 10 µM and ≤ 0.1 µM, respectively. In addition, at MERTK (setting [1]), the “FLT3/Mer ratio (FLT3 IC50/Mer IC50)” value is recorded as “+++ (“+++” represents a ratio of >100)”.

Regarding `COC[C@H](C)Nc1ncc2c(-c3cnn(C(C)(C)c4nc(C)co4)c3)cc([C@H]3CC[C@H](O)CC3)n2n1` [Compound 623], the IC50 on FLT3 is 1 to 10 µM; on MERTK it was ≤ 0.1 µM. Moreover, the “FLT3/Mer ratio (FLT3 IC50/Mer IC50)” value on MERTK (setting [1]) was “+++ (“+++” represents a ratio of >100)”.

As for `COC[C@H](C)Nc1ncc2c(-c3cnn(C4COC4)c3)cc([C@H]3CC[C@@](O)(C(C)C)CC3)n2n1` [Compound 618], the IC50 on FLT3 was 0.1 to 1 µM; at MERTK, ≤ 0.1 µM. Besides, the “FLT3/Mer ratio (FLT3 IC50/Mer IC50)” value on MERTK (setting [1]) is reported as “+++ (“+++” represents a ratio of >100)”.

For `C[C@@H](COC(F)F)Nc1ncc2c(-c3ccnc(N4CCO[C@@H](C(C)(C)O)C4)c3)cc([C@H]3CC[C@H](O)CC3)n2n1` [Compound 597], the IC50 against FLT3 was 0.1 to 1 µM; at MERTK, ≤ 0.1 µM. Further, the “FLT3/Mer ratio (FLT3 IC50/Mer IC50)” value at MERTK (setting [1]) was “+++ (“+++” represents a ratio of >100)”.

In the case of `COC[C@H](C)Nc1ncc2c(-c3cnn(C(C)(C)c4nnc([C@@H]5CCCO5)o4)c3)cc([C@H]3CC[C@H](O)CC3)n2n1` [Compound 601], the IC50 was 1 to 10 µM at FLT3 and ≤ 0.1 µM at MERTK. Further, the “FLT3/Mer ratio (FLT3 IC50/Mer IC50)” value at MERTK (setting [1]) is “+++ (“+++” represents a ratio of >100)”.

On to `COC[C@H](C)Nc1ncc2c(-c3cnn(C(C)(C)c4nnc(N5CCOCC5)o4)c3)cc(C3CCC(O)CC3)n2n1` (stereo partly drawn) [Compound 631], for which the IC50 against FLT3 is 1 to 10 µM; on MERTK, ≤ 0.1 µM. Moreover, the “FLT3/Mer ratio (FLT3 IC50/Mer IC50)” value at MERTK (setting [1]) was “+++ (“+++” represents a ratio of >100)”.

As usually defined, the IC50 is the concentration at which inhibition is half-maximal.
